Common to all, as to assay type: cell-based
One assay addresses T1, human A3 receptor (Homo sapiens, UniProt P0DMS8).
T1 construct: expressed in transfected cells; host or cells: CHO
T1 sequence (P0DMS8 1-318): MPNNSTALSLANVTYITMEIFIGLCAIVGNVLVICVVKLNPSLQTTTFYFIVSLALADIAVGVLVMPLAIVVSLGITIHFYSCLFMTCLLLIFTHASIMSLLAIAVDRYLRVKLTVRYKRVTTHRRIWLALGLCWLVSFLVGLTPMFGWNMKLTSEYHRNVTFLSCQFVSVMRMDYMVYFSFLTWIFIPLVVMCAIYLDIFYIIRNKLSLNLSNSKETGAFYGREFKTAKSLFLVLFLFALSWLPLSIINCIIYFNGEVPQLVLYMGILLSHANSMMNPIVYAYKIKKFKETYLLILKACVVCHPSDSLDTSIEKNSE
Put plainly: Functional A3 receptor activity, recombinant CHO cells, cAMP (HTRF), forskolin, agonist IB-MECA. The settings on record: recombinant CHO cells, forskolin, agonist IB-MECA, read-out: Functional A3 receptor activity, CHO, cAMP, IC50. In outline:
(§1)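 Recombinant CHO cells expressing A1 or A3 receptor (Gi-coupled) were stimulated with forskolin together with test compound and agonist (CPA for A1, IB-MECA for A3), incubated 30 min, then cellular cAMP was read by HTRF. Data were normalized to inhibitor control and DMSO neutral control, then curve-fitted.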
A general note: Time-resolved FRET reads energy transfer from a long-lived donor to a nearby acceptor.

In the next assay the target is T2, human A2B receptor (Homo sapiens, UniProt P29275).
T2 construct: expressed in transfected cells; host or cells: HEK293
T2 sequence (P29275 1-332): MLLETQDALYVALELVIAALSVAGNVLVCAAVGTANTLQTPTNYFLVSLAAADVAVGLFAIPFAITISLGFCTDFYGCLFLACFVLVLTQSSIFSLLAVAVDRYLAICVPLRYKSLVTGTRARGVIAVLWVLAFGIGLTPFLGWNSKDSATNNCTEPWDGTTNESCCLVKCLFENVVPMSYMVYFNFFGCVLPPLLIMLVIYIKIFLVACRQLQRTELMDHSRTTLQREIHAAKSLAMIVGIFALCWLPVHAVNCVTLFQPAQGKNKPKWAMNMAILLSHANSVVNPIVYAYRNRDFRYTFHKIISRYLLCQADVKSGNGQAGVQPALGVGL
The experiment in a line: Functional A2B receptor activity, recombinant HEK293 cells, cAMP (HTRF), agonist NECA. The settings on record: read-out: Functional A2B receptor activity, HEK293, cAMP, IC50. The method in brief:
(§2)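 Cellular cAMP measured by HTRF after 30 min incubation of cells with forskolin, test compounds and agonist. Data normalized to inhibitor control and DMSO neutral control, then curve-fitted.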

Another assay deals with T3, human A1 receptor (Homo sapiens, UniProt P30542).
T3 construct: expressed in transfected cells; host or cells: CHO
T3 sequence (P30542 1-326): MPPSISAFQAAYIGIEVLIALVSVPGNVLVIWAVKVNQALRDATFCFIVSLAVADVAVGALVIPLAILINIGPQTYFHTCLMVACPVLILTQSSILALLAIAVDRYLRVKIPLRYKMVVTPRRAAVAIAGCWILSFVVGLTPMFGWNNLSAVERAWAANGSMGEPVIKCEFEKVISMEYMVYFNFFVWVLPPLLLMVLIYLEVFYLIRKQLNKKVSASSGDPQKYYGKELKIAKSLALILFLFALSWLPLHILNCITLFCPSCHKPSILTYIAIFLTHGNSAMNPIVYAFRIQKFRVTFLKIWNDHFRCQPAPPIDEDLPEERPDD
Put plainly: Functional A1 receptor activity, recombinant CHO cells, cAMP (HTRF), forskolin, agonist CPA. Conditions: recombinant CHO cells, forskolin, agonist CPA, read-out: Functional A1 receptor activity, CHO, cAMP, IC50. In outline: as §1

A further assay concerns the target human A2A receptor (Homo sapiens, UniProt P29274). Put plainly: Functional A2A receptor activity, recombinant HEK293 cells, cAMP (HTRF), agonist NECA. On the set-up: expressed in transfected cells; host or cells: HEK293. Conditions: read-out: Functional A2A receptor activity, HEK293, cAMP, IC50. The method in brief:
as §2

Where two headings read alike, the source gives them in different places. A value given as a limit tells only on which side of the number the result lay.

Data on 18 compounds can be found in US12344623B2, “Thiazolopyridine derivatives as adenosine receptor antagonists” (Merck Patent GmbH, priority 2019, dated 2025).

For orientation: IC50 means the concentration needed to halve the response being measured.

Chain of human A2A receptor (P29274 whole entry): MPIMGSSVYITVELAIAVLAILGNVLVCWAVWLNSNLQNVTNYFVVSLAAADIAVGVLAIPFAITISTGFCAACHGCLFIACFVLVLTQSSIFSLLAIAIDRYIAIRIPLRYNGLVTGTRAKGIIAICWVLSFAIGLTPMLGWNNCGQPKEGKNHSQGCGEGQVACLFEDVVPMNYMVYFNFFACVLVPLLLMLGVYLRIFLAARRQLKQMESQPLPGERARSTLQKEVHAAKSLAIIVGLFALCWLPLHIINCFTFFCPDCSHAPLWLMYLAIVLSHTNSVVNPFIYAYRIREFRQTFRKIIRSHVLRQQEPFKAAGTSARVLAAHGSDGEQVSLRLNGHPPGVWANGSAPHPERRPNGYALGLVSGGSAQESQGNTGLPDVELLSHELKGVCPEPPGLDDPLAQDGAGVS

With `COc1ncc(-c2ccc(=O)[nH]c2)c2sc(NC(=O)N3CCC4(CCOCC4)C3)nc12` [Compound 78, 8-Oxa-2-aza-spiro[4.5]decane-2-carboxylic acid [4-methoxy-7-(6-oxo-1,6-dihydro-pyridin-3-yl)-thiazolo[4,5-c]pyridin-2-yl]-amide], the half-inhibitory concentration (IC50) on human A3 receptor is above 1 µM; at human A2B receptor it was below 1 µM; on human A1 receptor it was above 1 µM; on human A2A receptor, below 0.01 µM.
For `COc1ncc(-c2ccc(C)o2)c2sc(NC(=O)N3CCC4(CCOCC4)C3)nc12` [Compound 114, 8-Oxa-2-aza-spiro[4.5]decane-2-carboxylic acid [4-methoxy-7-(5-methyl-furan-2-yl)-thiazolo[4,5-c]pyridin-2-yl]-amide], the IC50 on human A3 receptor is above 1 µM; on human A2B receptor, below 0.1 µM; on human A1 receptor, below 1 µM; at human A2A receptor, below 0.01 µM.
Consider `COc1ccc(N2CCOCC2)c2sc(NC(=O)N3CCOCC3)nc12` [reference compound], for which the IC50 at human A3 receptor (cAMP) was above 1 µM; at human A2B receptor, below 1 µM; on human A1 receptor (cAMP) it was above 1 µM; at human A2A receptor it was below 0.01 µM.
For `COc1nc(F)c(N2CCOCC2)c2sc(NC(=O)N3CCC4(CCOC4)C3)nc12` (stereo not drawn) [Compound 16, N-[6-fluoro-4-methoxy-7-(morpholin-4-yl)-[1,3]thiazolo[4,5-c]pyridin-2-yl]-2-oxa-7-azaspiro[4.4]nonane-7-carboxamide], the IC50 at human A3 receptor was above 1 µM; at human A2B receptor, below 0.1 µM; at human A1 receptor, above 1 µM; at human A2A receptor, below 0.01 µM.
As for `COc1ncc(C2=CCOCC2)c2sc(NC(=O)c3ccc(C(=O)N4CCN(C)CC4)cc3)nc12` [Compound 125, N-[7-(3,6-Dihydro-2H-pyran-4-yl)-4-methoxy-thiazolo[4,5-c]pyridin-2-yl]-4-(4-methyl-piperazine-1-carbonyl)-benzamide], the IC50 on human A3 receptor is above 1 µM; on human A2B receptor, below 0.01 µM; at human A1 receptor, below 1 µM; at human A2A receptor, below 0.01 µM.
On to `COc1ncc(-c2cccc(Oc3cccnc3)c2)c2sc(NC(=O)N3CCC4(CCOCC4)C3)nc12` [Compound 160, 8-Oxa-2-aza-spiro[4.5]decane-2-carboxylic acid {4-methoxy-7-[3-(pyridin-3-yloxy)-phenyl]-thiazolo[4,5-c]pyridin-2-yl}-amide], for which the IC50 was above 1 µM on human A3 receptor, below 0.01 µM at human A2B receptor, below 1 µM at human A1 receptor and below 0.01 µM at human A2A receptor.
Consider `COc1ncc(C2CCC(F)(F)CC2)c2sc(NC(=O)N3CCC4(CCOCC4)C3)nc12` [Compound 111, 8-Oxa-2-aza-spiro[4.5]decane-2-carboxylic acid [7-(4,4-difluoro-cyclohexyl)-4-methoxy-thiazolo[4,5-c]pyridin-2-yl]-amide], for which the IC50 on human A3 receptor is above 1 µM; on human A2B receptor, below 0.1 µM; at human A1 receptor it was below 1 µM; on human A2A receptor it was below 0.01 µM.
Consider `COc1ncc(-c2ccc(C)s2)c2sc(NC(=O)N3CCC4(CCOCC4)C3)nc12` [Compound 113, 8-Oxa-2-aza-spiro[4.5]decane-2-carboxylic acid [4-methoxy-7-(5-methyl-thiophen-2-yl)-thiazolo[4,5-c]pyridin-2-yl]-amide], for which the half-maximal inhibitory concentration (IC50) on human A3 receptor is above 1 µM; at human A2B receptor it was below 0.1 µM; at human A1 receptor it was above 1 µM; at human A2A receptor, below 0.01 µM.
Turning to `COc1ncc(C2=CCOC2)c2sc(NC(=O)N3CCC4(CCCOC4)C3)nc12` (stereo not drawn) [Compound 45, N-[7-(2,5-dihydrofuran-3-yl)-4-methoxy-[1,3]thiazolo[4,5-c]pyridin-2-yl]-7-oxa-2-azaspiro[4.5]decane-2-carboxamide], the IC50 is above 1 µM at human A3 receptor, below 0.1 µM at human A2B receptor, above 1 µM at human A1 receptor and below 0.1 µM on human A2A receptor.
Turning to `COc1ncc(-c2csc(C)n2)c2sc(NC(=O)N3CCC4(CCOCC4)C3)nc12` [Compound 67, 8-Oxa-2-aza-spiro[4.5]decane-2-carboxylic acid [4-methoxy-7-(2-methyl-thiazol-4-yl)-thiazolo[4,5-c]pyridin-2-yl]-amide], the IC50 at human A3 receptor was above 1 µM; at human A2B receptor it was below 0.1 µM; at human A1 receptor, below 1 µM; at human A2A receptor it was below 0.01 µM.
Take `COc1nc(F)c(-c2ccccc2)c2sc(NC(=O)c3c[nH]cn3)nc12` [Compound 32, 1H-Imidazole-4-carboxylic acid (6-fluoro-4-methoxy-7-phenyl-thiazolo[4,5-c]pyridin-2-yl)-amide]: the IC50 on human A3 receptor was above 1 µM; at human A2B receptor it was below 0.01 µM; on human A1 receptor, below 0.1 µM; on human A2A receptor, below 0.01 µM.
On to `COc1nc(F)c(-c2ccccc2)c2sc(NC(=O)C34CC(C(=O)N(C)CCO)(C3)C4)nc12` [Compound 101, Bicyclo[1.1.1]pentane-1,3-dicarboxylic acid (6-fluoro-4-methoxy-7-phenyl-thiazolo[4,5-c]pyridin-2-yl)-amide (2-hydroxy-ethyl)-methyl-amide], for which the 50% inhibitory concentration (IC50) on human A3 receptor is above 1 µM; on human A2B receptor, below 0.1 µM; at human A1 receptor, above 1 µM; at human A2A receptor it was below 0.01 µM.
With `COc1ncc(C2=CCOCC2)c2sc(NC(=O)Nc3ccc(NC(C)=O)c(C)c3)nc12` [Compound 92, N-[4-({[7-(3,6-dihydro-2H-pyran-4-yl)-4-methoxy-[1,3]thiazolo[4,5-c]pyridin-2-yl]carbamoyl}amino)-2-methylphenyl]acetamide], the IC50 was below 1 µM on human A3 receptor, below 0.01 µM at human A2B receptor, below 0.1 µM on human A1 receptor and below 0.01 µM on human A2A receptor.
As to `COc1ncc(C2=CCOCC2)c2sc(NC(=O)c3cnc4ccccn34)nc12` [Compound 135, Imidazo[1,2-a]pyridine-3-carboxylic acid [7-(3,6-dihydro-2H-pyran-4-yl)-4-methoxy-thiazolo[4,5-c]pyridin-2-yl]-amide], the IC50 on human A3 receptor was below 1 µM; at human A2B receptor it was below 0.01 µM; at human A1 receptor, below 1 µM; at human A2A receptor, below 0.01 µM.
Regarding `COc1ncc(C2=CCOCC2)c2sc(NC(=O)N3CCC4(CCOC4)C3)nc12` (stereo not drawn) [Compound 108, N-[7-(3,6-dihydro-2H-pyran-4-yl)-4-methoxy-[1,3]thiazolo[4,5-c]pyridin-2-yl]-2-oxa-7-azaspiro[4.4]nonane-7-carboxamide], the IC50 is above 1 µM on human A3 receptor, below 0.01 µM at human A2B receptor, below 1 µM at human A1 receptor and below 0.01 µM at human A2A receptor.
For the compound `COc1ncc(-c2cnn(CC3CCCCO3)c2)c2sc(NC(=O)N3CCC4(CCOCC4)C3)nc12` (stereo not drawn) [Compound 84, 8-Oxa-2-aza-spiro[4.5]decane-2-carboxylic acid {4-methoxy-7-[1-(tetrahydro-pyran-2-ylmethyl)-1H-pyrazol-4-yl]-thiazolo[4,5-c]pyridin-2-yl}-amide], the IC50 on human A3 receptor is above 1 µM; on human A2B receptor, below 0.1 µM; at human A1 receptor it was below 0.1 µM; on human A2A receptor, below 0.01 µM.
In the case of `COc1ncc(C2=CCOCC2)c2sc(NC(=O)N3CC[C@]4(CCCNC4)C3)nc12` [Compound 122, (S)-2,7-Diaza-spiro[4.5]decane-2-carboxylic acid [7-(3,6-dihydro-2H-pyran-4-yl)-4-methoxy-thiazolo[4,5-c]pyridin-2-yl]-amide], the IC50 was above 1 µM on human A3 receptor, below 0.1 µM on human A2B receptor, above 1 µM at human A1 receptor and below 0.01 µM on human A2A receptor.
Turning to `COc1ncc(C2=CCOC2)c2sc(NC(=O)c3c[nH]cn3)nc12` [Compound 43, N-[7-(2,5-dihydrofuran-3-yl)-4-methoxy-[1,3]thiazolo[4,5-c]pyridin-2-yl]-1H-imidazole-4-carboxamide], the IC50 on human A3 receptor is above 1 µM; on human A2B receptor, below 0.1 µM; on human A1 receptor, below 1 µM; on human A2A receptor, below 0.01 µM.
